Source: ChEMBL document CHEMBL1201862, “PubChem BioAssay data set” (2004)
Activity calls are given as the source filed them.

Assays:
[1] = molecular target: Protein-tyrosine kinase 2-beta (Homo sapiens, UniProt Q14289);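 also: potency of inhibitors of PYK2 kinase phosphorylation of poly-GT substrate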
[2] = molecular target: Serine/threonine-protein phosphatase PP1-alpha catalytic subunit (Homo sapiens, UniProt P62136); experiment: PP1 phosphatase inhibitors, dose response, biochemical, fluorescence (AID 2394)
Serine/threonine-protein phosphatase PP1-alpha catalytic subunit, sequence (P62136 whole entry): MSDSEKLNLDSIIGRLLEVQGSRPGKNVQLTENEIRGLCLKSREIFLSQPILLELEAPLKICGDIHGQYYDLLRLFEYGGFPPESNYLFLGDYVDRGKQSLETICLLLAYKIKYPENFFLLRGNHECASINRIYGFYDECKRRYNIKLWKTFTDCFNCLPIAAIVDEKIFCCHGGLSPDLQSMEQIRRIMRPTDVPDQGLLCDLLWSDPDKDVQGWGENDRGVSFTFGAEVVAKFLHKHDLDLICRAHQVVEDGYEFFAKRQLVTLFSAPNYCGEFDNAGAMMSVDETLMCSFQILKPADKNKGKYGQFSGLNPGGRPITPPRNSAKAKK

Caspase-3 = molecular target: T1, Caspase-3 (Homo sapiens, UniProt P42574); assay type: functional;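 also: Dose-response selectivity test against caspase-3 for candidate inhibitors of sentrin-specific proteases (SENPs)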
T1 sequence (P42574 whole entry): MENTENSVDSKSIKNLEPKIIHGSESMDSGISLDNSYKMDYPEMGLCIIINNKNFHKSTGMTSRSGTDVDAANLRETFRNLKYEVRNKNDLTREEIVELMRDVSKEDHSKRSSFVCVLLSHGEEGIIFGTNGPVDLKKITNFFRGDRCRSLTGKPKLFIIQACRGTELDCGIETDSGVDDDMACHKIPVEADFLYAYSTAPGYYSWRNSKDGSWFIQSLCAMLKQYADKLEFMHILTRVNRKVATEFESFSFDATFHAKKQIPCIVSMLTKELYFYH

Insulin-degrading enzyme = molecular target: T2, Insulin-degrading enzyme (Homo sapiens, UniProt P14735); experiment: activators of recombinant IDE enzyme, dose response, counter-screen for IDE activator project, biochemical, fluorescence polarization (AID 588681)
T2 sequence (P14735 whole entry): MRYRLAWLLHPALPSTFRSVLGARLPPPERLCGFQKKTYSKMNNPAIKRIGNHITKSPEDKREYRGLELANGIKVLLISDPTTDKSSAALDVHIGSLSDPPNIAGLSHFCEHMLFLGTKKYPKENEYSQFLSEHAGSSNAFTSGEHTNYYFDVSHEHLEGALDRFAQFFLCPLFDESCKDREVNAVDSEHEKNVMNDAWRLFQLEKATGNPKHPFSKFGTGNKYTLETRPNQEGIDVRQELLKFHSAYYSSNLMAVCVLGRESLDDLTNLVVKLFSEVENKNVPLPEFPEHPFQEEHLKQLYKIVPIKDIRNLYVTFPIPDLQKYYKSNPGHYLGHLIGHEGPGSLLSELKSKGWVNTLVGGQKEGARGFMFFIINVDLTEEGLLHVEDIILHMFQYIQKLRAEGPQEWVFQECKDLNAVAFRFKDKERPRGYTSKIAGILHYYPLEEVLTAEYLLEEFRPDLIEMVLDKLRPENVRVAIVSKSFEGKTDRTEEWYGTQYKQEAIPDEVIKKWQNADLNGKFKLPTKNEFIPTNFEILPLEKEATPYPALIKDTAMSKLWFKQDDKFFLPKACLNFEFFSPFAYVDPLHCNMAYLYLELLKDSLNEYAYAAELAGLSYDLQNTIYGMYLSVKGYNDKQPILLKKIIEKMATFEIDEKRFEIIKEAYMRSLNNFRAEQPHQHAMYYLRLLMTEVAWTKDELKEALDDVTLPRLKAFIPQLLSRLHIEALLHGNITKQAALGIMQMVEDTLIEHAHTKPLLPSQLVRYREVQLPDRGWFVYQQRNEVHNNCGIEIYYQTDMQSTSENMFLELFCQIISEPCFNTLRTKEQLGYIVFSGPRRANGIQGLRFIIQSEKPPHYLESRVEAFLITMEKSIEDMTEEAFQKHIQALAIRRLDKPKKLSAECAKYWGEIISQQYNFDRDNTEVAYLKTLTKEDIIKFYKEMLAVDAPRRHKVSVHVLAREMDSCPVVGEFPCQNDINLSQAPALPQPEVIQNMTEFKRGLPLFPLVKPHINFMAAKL

Protein-tyrosine kinase 2-beta, sequence (Q14289 whole entry): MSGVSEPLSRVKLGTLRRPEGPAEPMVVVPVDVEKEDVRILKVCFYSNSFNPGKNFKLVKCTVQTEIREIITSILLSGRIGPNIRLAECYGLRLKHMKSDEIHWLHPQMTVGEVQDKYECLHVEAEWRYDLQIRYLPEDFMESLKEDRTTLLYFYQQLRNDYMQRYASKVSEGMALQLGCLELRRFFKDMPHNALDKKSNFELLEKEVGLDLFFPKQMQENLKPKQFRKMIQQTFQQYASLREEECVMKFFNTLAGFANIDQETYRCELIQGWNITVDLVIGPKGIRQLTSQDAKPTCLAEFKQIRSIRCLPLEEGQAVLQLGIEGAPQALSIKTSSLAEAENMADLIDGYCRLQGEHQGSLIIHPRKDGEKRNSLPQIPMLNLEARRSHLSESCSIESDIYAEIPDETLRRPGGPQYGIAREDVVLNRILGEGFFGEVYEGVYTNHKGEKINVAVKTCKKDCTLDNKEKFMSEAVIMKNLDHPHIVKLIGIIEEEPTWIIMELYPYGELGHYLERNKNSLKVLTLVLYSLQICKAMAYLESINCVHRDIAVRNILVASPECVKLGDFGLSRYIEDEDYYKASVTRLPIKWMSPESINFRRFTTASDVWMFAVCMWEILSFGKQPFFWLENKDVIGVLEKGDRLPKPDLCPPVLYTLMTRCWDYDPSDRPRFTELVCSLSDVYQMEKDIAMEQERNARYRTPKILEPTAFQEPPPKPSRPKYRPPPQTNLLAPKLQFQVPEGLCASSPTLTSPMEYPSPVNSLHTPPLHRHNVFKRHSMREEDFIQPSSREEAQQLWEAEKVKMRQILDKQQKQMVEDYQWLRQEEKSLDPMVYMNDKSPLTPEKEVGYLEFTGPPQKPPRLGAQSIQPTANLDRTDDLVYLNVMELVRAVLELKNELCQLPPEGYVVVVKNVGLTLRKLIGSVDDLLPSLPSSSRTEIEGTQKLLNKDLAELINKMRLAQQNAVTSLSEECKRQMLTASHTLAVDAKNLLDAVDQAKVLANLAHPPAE

## Oc1nc(Nc2ccccc2)cc2ccccc12
[1]
  IC50: > 69.5 µM (not active)
[2]
  IC50: > 67 µM (not active)
Caspase-3
  IC50: 1.02 µM (active)

## COc1cc(OC)c(-c2c3cc(O)c(=O)cc-3oc3cc(O)c(O)cc23)cc1OC
Insulin-degrading enzyme
  EC50: > 54.7 µM (inactive)
